Earlier results as cited in US5514648A, “Fungicidally active compounds” (priority 1990, dated 1996).

How the values were obtained:
Bacillus subtilis = settings: against Bacillus subtilis; cited from earlier work
Staphylococcus aureus = settings: against Staphylococcus aureus; cited from earlier work
Escedchia coli = settings: against Escedchia coli; cited from earlier work
Penicillium digitalum = settings: spore germination test with Penicillium digitalum; cited from earlier work

Compound: CC1CCCCCC(=O)c2c(O)cc(O)cc2CC(=O)O1 (stereo not shown) [curvularin, Curvularin]
- anti-bacterial activity (Bacillus subtilis): Neither curvularin nor the crude filtrates from Curvularia showed
- anti-bacterial activity (Staphylococcus aureus): Neither curvularin nor the crude filtrates from Curvularia showed
- anti-bacterial activity (Escedchia coli): Neither curvularin nor the crude filtrates from Curvularia showed
- anti-fungal activity (Penicillium digitalum): Neither curvularin nor the crude filtrates from Curvularia showed
